Test results reported in patent publication US9447044B2, “Thioaryl derivatives as GPR120 agonists” (LG LIFE SCIENCES LTD., priority 2012, dated 2016).

Biological target: T1, hGPR120 (Homo sapiens, UniProt Q5NUL3)
T1 construct: expressed in transfected cells; host or cells: CHO-K1
T1 sequence (Q5NUL3 1-361): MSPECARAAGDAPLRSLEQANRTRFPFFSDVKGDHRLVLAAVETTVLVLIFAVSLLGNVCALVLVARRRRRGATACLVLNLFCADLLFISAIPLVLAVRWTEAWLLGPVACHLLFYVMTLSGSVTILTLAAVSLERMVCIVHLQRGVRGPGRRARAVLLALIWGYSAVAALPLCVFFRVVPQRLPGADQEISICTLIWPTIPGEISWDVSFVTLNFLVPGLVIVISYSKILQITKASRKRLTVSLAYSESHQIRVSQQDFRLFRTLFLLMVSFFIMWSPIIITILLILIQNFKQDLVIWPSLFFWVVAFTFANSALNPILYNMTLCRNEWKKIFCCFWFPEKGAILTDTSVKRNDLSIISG
Experiment: Measurement of activity of GPR120 agonist (cell-based assay), calcium fluorescence
Conditions: CHO-K1 cells expressing Ga16 and hGPR120, Calcium 5 dye fluorescence
In short: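 CHO-K1 cells co-expressing Gα16 and hGPR120, loaded with Calcium 5 dye for 1 h at 37° C, received serially diluted agonists (final 0.5% DMSO). Fluorescence (Ex 485/Em 525 nm) was expressed as relative percent over 0.1% DMSO-only wells; activity binned as A >20 μM, B 20–2 μM, C 2–0.2 μM, D <0.2 μM.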

O=C(O)CCc1cc(F)c(OCc2cccnc2Sc2ccccc2)c(F)c1 [Example 15, 3-[3,5-difluoro-4-(2-phenylsulfanyl-pyridin-3-ylmethoxy)-phenyl]-propionic acid]
EC50 (activity class): 200 to 2000 nM

CC(Cc1ccc(OCc2cccc(SC3CCC3)n2)c(F)c1)C(=O)O (stereo not shown) [Example 55, 3-[4-(6-cyclobutylsulfanyl-pyridin-2-ylmethoxy)-3-fluoro-phenyl]-2-methyl-propionic acid]
EC50 (activity class): < 200 nM

O=C(O)CCc1ccc(OCc2cccc(SC3CCC3)n2)c(F)c1 [Example 148, 3-[4-(6-cyclobutylsulfanyl-pyridin-2-ylmethoxy)-3-fluoro-phenyl]-propionic acid]
EC50 (activity class): < 200 nM

O=C(O)C1CC1c1ccc(OCc2cccnc2SCC2CC2)c(F)c1 (single isomer, unassigned) [Example 129, 2-[4-(2-cyclopropylmethylsulfanyl-pyridin-3-ylmethoxy)-3-fluoro-phenyl]-cyclopropane carboxylic acid]
EC50 (activity class): 200 to 2000 nM

O=C(O)CCc1ccc(NCc2cccnc2SC2CCCC2)cc1 [Example 171, 3-{4-[(2-cyclopentylsulfanyl-pyridin-3-ylmethyl)-amino]-phenyl]-propionic acid]
EC50 (activity class): 200 to 2000 nM

O=C(O)CCc1ccc(OCc2cccc(SC3CCC3)n2)cc1F [Example 176]
EC50 (numeric value): 176 nM

CC(C)Sc1cccc(COc2ccc(C3CC3C(=O)O)cc2Cl)n1 (stereo not shown) [Example 99, 2-[3-chloro-4-(6-isopropylsulfanyl-pyridin-2-ylmethoxy)-phenyl]-cyclopropane carboxylic acid]
EC50 (activity class): < 200 nM

CC(Cc1cc(F)c(OCc2cccc(SC3CCCC3)n2)c(F)c1)C(=O)O (stereo not shown) [Example 44, 3-[4-(6-cyclopentylsulfanyl-pyridin-2-ylmethoxy)-3,5-difluoro-phenyl]-2-methyl-propionic acid]
EC50 (activity class): < 200 nM

O=C(O)CCc1ccc(OCc2cccc(SCC3CC3)n2)cc1F [Example 179]
EC50 (activity class): 200 to 2000 nM

CC(C)Sc1ncccc1COc1ccc(CC(C)C(=O)O)cc1F (stereo not shown) [Example 60, 3-[3-fluoro-4-(2-isopropylsulfanyl-pyridin-3-ylmethoxy)-phenyl]-2-methyl-propionic acid]
EC50 (activity class): < 200 nM

COc1ccc(COc2c(F)cc(CCC(=O)O)cc2F)c(SC(C)C)n1 [Example 43, 3-[3,5-difluoro-4-(2-isopropylsulfanyl-6-methoxy-pyridin-3-ylmethoxy)-phenyl]-propionic acid]
EC50 (activity class): < 200 nM

CC(C)Sc1cccc(COc2c(F)cc(C3CC3C(=O)O)cc2F)n1 (stereo not shown) [Example 64, 2-[3,5-difluoro-4-(6-isopropylsulfanyl-pyridin-2-ylmethoxy)-phenyl]-cyclopropane carboxylic acid]
EC50 (numeric value): 108 nM

CC(C)Sc1ncccc1COc1ccc(C2CC2C(=O)O)cc1F (stereo not shown) [Example 83, 2-[3-fluoro-4-(2-isopropylsulfanyl-pyridin-3-ylmethoxy)-phenyl]-cyclopropane carboxylic acid]
EC50 (numeric value): 110 nM

O=C(O)C1CC1Cc1cc(F)c(OCc2cccc(SC3CCC3)n2)c(F)c1 (stereo not shown) [Example 115, 2-[4-(6-cyclobutylsulfanyl-pyridin-2-ylmethoxy)-3,5-difluoro-benzyl]-cyclopropane carboxylic acid]
EC50 (activity class): < 200 nM

O=C(O)C1CC1c1ccc(OCc2cccc(SC3CCC3)n2)c(Cl)c1 (stereo not shown) [Example 132, 2-[3-chloro-4-(6-cyclobutylsulfanyl-pyridin-2-ylmethoxy)-phenyl]-cyclopropane carboxylic acid]
EC50 (activity class): < 200 nM

Cc1ccc(COc2c(F)cc(CCC(=O)O)cc2F)c(SC(C)C)n1 [Example 9, 3-[3,5-difluoro-4-(2-isopropylsulfanyl-6-methyl-pyridin-3-ylmethoxy)-phenyl]-propionic acid]
EC50 (activity class): < 200 nM

CCCSc1ncccc1COc1c(F)cc(CCC(=O)O)cc1F [Example 14, 3-[3,5-difluoro-4-(2-propylsulfanyl-pyridin-3-ylmethoxy)-phenyl]-propionic acid]
EC50 (activity class): < 200 nM

CC(C)Sc1cccc(COc2ccc3c(c2)OCC3CC(=O)O)n1 (stereo not shown) [Example 67, [6-(6-isopropylsulfanyl-pyridin-2-ylmethoxy)-2,3-dihydro-benzofuran-3-yl]-acetic acid]
EC50 (activity class): 200 to 2000 nM

O=C(O)C[C@H]1COc2cc(OCc3cccnc3SC3CCCC3)ccc21 [Example 82, [(R)-6-(2-cyclopentylsulfanyl-pyridin-3-ylmethoxy)-2,3-dihydro-benzofuran-3-yl]-acetic acid]
EC50 (activity class): < 200 nM

O=C(O)C1CC1c1ccc(OCc2cccnc2SC2CCC2)c(Cl)c1 (single isomer, unassigned) [Example 125, 2-[3-chloro-4-(2-cyclobutylsulfanyl-pyridin-3-ylmethoxy)-phenyl]-cyclopropane carboxylic acid]
EC50 (activity class): < 200 nM

O=C(O)CCc1ccc(OCc2cccnc2SCC2CC2)c(F)c1 [Example 147, 3-[4-(2-cyclopropylmethylsulfanyl-pyridin-3-ylmethoxy)-3-fluoro-phenyl]-propionic acid]
EC50 (numeric value): 54 nM

CC(Cc1ccc(OCc2cccnc2SCC2CC2)c(F)c1)C(=O)O (stereo not shown) [Example 40, 3-[4-(2-cyclopropylmethylsulfanyl-pyridin-3-ylmethoxy)-3-fluoro-phenyl]-2-methyl-propionic acid]
EC50 (activity class): < 200 nM

O=C(O)CCc1cc(F)c(OCc2cccc(SC3CCCCC3)n2)c(F)c1 [Example 31]
EC50 (activity class): < 200 nM

O=C(O)CCc1ccc(OCc2cccc(SC3CCCC3)n2)c(Cl)c1 [Example 143, 3-[3-chloro-4-(6-cyclopentylsulfanyl-pyridin-2-ylmethoxy)-phenyl]-propionic acid]
EC50 (activity class): < 200 nM

O=C(O)C1CC1c1ccc(OCc2cccnc2SCC2CC2)c(F)c1 (single isomer, unassigned) [Example 165, 2-[4-(2-cyclopropylmethylsulfanyl-pyridin-3-ylmethoxy)-3-fluoro-phenyl]-cyclopropane carboxylic acid]
EC50 (activity class): < 200 nM

O=C(O)C1CC1c1ccc(OCc2cccnc2SCC2CC2)c(Cl)c1 (stereo not shown) [Example 107, 2-[3-chloro-4-(2-cyclopropylmethylsulfanyl-pyridin-3-ylmethoxy)-phenyl]-cyclopropane carboxylic acid]
EC50 (activity class): < 200 nM

O=C(O)CCc1ccc(OCc2cccnc2SC2CCC2)cc1 [Example 180]
EC50 (activity class): 200 to 2000 nM

O=C(O)C1CC1c1ccc(OCc2cccc(SC3CCC3)n2)c(F)c1 (single isomer, unassigned) [Example 135, 2-[4-(6-cyclobutylsulfanyl-pyridin-2-ylmethoxy)-3-fluoro-phenyl]-cyclopropane carboxylic acid]
EC50 (numeric value): 27 nM
